Target: T1, TrAA12 (Trichoderma reesei, UniProt G0RPY6)
T1 construct: gene AA12
Assay: cytochrome c reduction at […] nm, Michaelis-Menten nonlinear fit
Assay type: biochemical
Details: 50 uM cytochrome c, 4 uM PQQ, 1 mM CaCl2, 50 mM sodium acetate pH 5.5, 40 C; full cofactor occupancy assumed

T1 sequence (G0RPY6 24-430): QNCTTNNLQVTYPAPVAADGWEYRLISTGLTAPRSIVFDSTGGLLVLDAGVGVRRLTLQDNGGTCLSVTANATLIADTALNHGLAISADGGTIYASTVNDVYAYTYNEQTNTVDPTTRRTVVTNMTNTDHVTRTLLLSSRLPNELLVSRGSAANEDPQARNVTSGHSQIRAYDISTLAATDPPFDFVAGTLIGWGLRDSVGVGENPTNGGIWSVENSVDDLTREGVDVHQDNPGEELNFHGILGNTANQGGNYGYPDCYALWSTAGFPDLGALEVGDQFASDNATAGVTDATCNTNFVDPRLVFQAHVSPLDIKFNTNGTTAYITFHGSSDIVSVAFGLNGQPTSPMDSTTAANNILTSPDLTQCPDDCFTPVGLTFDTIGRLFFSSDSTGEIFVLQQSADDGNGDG

C[C@@H]1OC(O)[C@@H](O)[C@H](O)[C@@H]1O (stereo partly drawn) [L-fucose]
Km: 99.9 ± 9.7 mM
